In US11306117B2, “Whitening composition containing novel quercetin-based compound” (AMOREPACIFIC CORPORATION, priority 2017, dated 2022):

System: healthy adult examinees
Assay: HRIPT (Human repeated insult patch tests), skin accumulated stimulus
Type: in vivo
Details: for Number of examinees who exhibited ±, +, or ++ reactivity 5th: 5th patch; for Number of examinees who exhibited ±, +, or ++ reactivity 6th: 6th patch; for Number of examinees who exhibited ±, +, or ++ reactivity 7th: 7th patch; for Number of examinees who exhibited ±, +, or ++ reactivity 8th: 8th patch; for Number of examinees who exhibited ±, +, or ++ reactivity 9th: 9th patch; for Number of examinees who exhibited ±, +, or ++ reactivity 1st: 1st patch; for Number of examinees who exhibited ±, +, or ++ reactivity 2nd: 2nd patch; for Number of examinees who exhibited ±, +, or ++ reactivity 3rd: 3rd patch; for Number of examinees who exhibited ±, +, or ++ reactivity 4th: 4th patch
Experimental: HRIPT (Human repeated insult patch tests) was conducted in order to identify skin accumulated stimulus of quercetin3-O-[3-O″-(E)-p-coumaroyl][β-D-glucopyranosyl-(1→3)-O-α-L-rhamnopyranosyl-(1→6)-O-β-D-glucopyranoside] and quercetin3-O-[3-O″-(E)-p-coumaroyl][α-L-rhamnopyranosyl-(1→6)-O-β-D-glucopyranoside]and to calculate the concentration range that can be used in skin.
Specifically, 15 healthy adult examinees were randomly selected, and test compositions in which the compounds were respectively comprised in an amount of 0.5 wt. %, 1 wt. %, and 3 wt. % (the compositions for skin, comprising an emulsifying agent, a stabilizer, purified water, etc. in addition to the compounds) were dropped in the amount of 20 μl per chamber (IQ chamber, Epitest Ltd, Finland), and patched on the right site of the upper back of the examinees, and then, after 24 hours, the patch was replaced with a new patch. A total of 9 patches were conducted, three times a week for total 3 weeks, in such manner, the skin reactions before and after patch were examined every time, and the skin reactions until 48 hours after removing the final patch were observed, and the average reactivity was observed.
The skin reaction was determined according to the criteria of International Contact Dermatitis Research Group (ICDRG). In the above table, “New Material 31” refers to quercetin3-O-[3-O″-(E)-p-coumaroyl][β-D-glucopyranosyl-(1→3)-O-α-L-rhamnopyranosyl-(1→6)-O-β-D-glucopyranoside], and “New Material 32” refers to quercetin3-O-[3-O″-(E)-p-coumaroyl][α-L-rhamnopyranosyl-(1→6)-O-β-D-glucopyranoside].

C[C@@H]1O[C@@H](OC[C@H]2O[C@@H](Oc3c(-c4ccc(O)c(O)c4)oc4cc(O)cc(O)c4c3=O)[C@H](O)[C@@H](OC(=O)/C=C/c3ccc(O)cc3)[C@@H]2O)[C@H](O)[C@H](O[C@@H]2O[C@H](CO)[C@@H](O)[C@H](O)[C@H]2O)[C@H]1O [New Material 31, quercetin3-O-[3-O″-(E)-p-coumaroyl][β-D-glucopyranosyl-(1→3)-O-α-L-rhamnopyranosyl-(1→6)-O-β-D-glucopyranoside]]
Number of examinees who exhibited ±, +, or ++ reactivity 5th (1 wt.%, line 1 of 3 (±)): 0 number
Number of examinees who exhibited ±, +, or ++ reactivity 5th (1 wt.%, line 2 of 3 (+)): 0 number
Number of examinees who exhibited ±, +, or ++ reactivity 5th (1 wt.%, line 3 of 3 (++)): 0 number
Number of examinees who exhibited ±, +, or ++ reactivity 6th (1 wt.%, line 1 of 3 (±)): 0 number
Number of examinees who exhibited ±, +, or ++ reactivity 6th (1 wt.%, line 2 of 3 (+)): 0 number
Number of examinees who exhibited ±, +, or ++ reactivity 6th (1 wt.%, line 3 of 3 (++)): 0 number
Number of examinees who exhibited ±, +, or ++ reactivity 7th (1 wt.%, line 1 of 3 (±)): 0 number
Number of examinees who exhibited ±, +, or ++ reactivity 7th (1 wt.%, line 2 of 3 (+)): 0 number
Number of examinees who exhibited ±, +, or ++ reactivity 7th (1 wt.%, line 3 of 3 (++)): 0 number
Number of examinees who exhibited ±, +, or ++ reactivity 8th (1 wt.%, line 1 of 3 (±)): 0 number
Number of examinees who exhibited ±, +, or ++ reactivity 8th (1 wt.%, line 2 of 3 (+)): 0 number
Number of examinees who exhibited ±, +, or ++ reactivity 8th (1 wt.%, line 3 of 3 (++)): 0 number
Number of examinees who exhibited ±, +, or ++ reactivity 9th (1 wt.%, line 1 of 3 (±)): 0 number
Number of examinees who exhibited ±, +, or ++ reactivity 9th (1 wt.%, line 2 of 3 (+)): 0 number
Number of examinees who exhibited ±, +, or ++ reactivity 9th (1 wt.%, line 3 of 3 (++)): 0 number
average reactivity (3 wt.% in test composition, 9 patches, 15 examinees): 0
Number of examinees who exhibited ±, +, or ++ reactivity 1st (3 wt.%, line 1 of 3 (±)): 0 number
Number of examinees who exhibited ±, +, or ++ reactivity 1st (3 wt.%, line 2 of 3 (+)): 0 number
Number of examinees who exhibited ±, +, or ++ reactivity 1st (3 wt.%, line 3 of 3 (++)): 0 number
Number of examinees who exhibited ±, +, or ++ reactivity 2nd (3 wt.%, line 1 of 3 (±)): 0 number
Number of examinees who exhibited ±, +, or ++ reactivity 2nd (3 wt.%, line 2 of 3 (+)): 0 number
Number of examinees who exhibited ±, +, or ++ reactivity 2nd (3 wt.%, line 3 of 3 (++)): 0 number
Number of examinees who exhibited ±, +, or ++ reactivity 3rd (3 wt.%, line 1 of 3 (±)): 0 number
Number of examinees who exhibited ±, +, or ++ reactivity 3rd (3 wt.%, line 2 of 3 (+)): 0 number
Number of examinees who exhibited ±, +, or ++ reactivity 3rd (3 wt.%, line 3 of 3 (++)): 0 number
Number of examinees who exhibited ±, +, or ++ reactivity 4th (3 wt.%, line 1 of 3 (±)): 0 number
Number of examinees who exhibited ±, +, or ++ reactivity 4th (3 wt.%, line 2 of 3 (+)): 0 number
Number of examinees who exhibited ±, +, or ++ reactivity 4th (3 wt.%, line 3 of 3 (++)): 0 number
Number of examinees who exhibited ±, +, or ++ reactivity 5th (3 wt.%, line 1 of 3 (±)): 0 number
Number of examinees who exhibited ±, +, or ++ reactivity 5th (3 wt.%, line 2 of 3 (+)): 0 number
Number of examinees who exhibited ±, +, or ++ reactivity 5th (3 wt.%, line 3 of 3 (++)): 0 number
Number of examinees who exhibited ±, +, or ++ reactivity 6th (3 wt.%, line 1 of 3 (±)): 0 number
Number of examinees who exhibited ±, +, or ++ reactivity 6th (3 wt.%, line 2 of 3 (+)): 0 number
Number of examinees who exhibited ±, +, or ++ reactivity 6th (3 wt.%, line 3 of 3 (++)): 0 number
Number of examinees who exhibited ±, +, or ++ reactivity 7th (3 wt.%, line 1 of 3 (±)): 0 number
Number of examinees who exhibited ±, +, or ++ reactivity 7th (3 wt.%, line 2 of 3 (+)): 0 number
Number of examinees who exhibited ±, +, or ++ reactivity 7th (3 wt.%, line 3 of 3 (++)): 0 number
Number of examinees who exhibited ±, +, or ++ reactivity 8th (3 wt.%, line 1 of 3 (±)): 0 number
Number of examinees who exhibited ±, +, or ++ reactivity 8th (3 wt.%, line 2 of 3 (+)): 0 number
Number of examinees who exhibited ±, +, or ++ reactivity 8th (3 wt.%, line 3 of 3 (++)): 0 number
Number of examinees who exhibited ±, +, or ++ reactivity 9th (3 wt.%, line 1 of 3 (±)): 0 number
Number of examinees who exhibited ±, +, or ++ reactivity 9th (3 wt.%, line 2 of 3 (+)): 0 number
Number of examinees who exhibited ±, +, or ++ reactivity 9th (3 wt.%, line 3 of 3 (++)): 0 number
